Laboratory results as given in PubChem BioAssay (NCI).
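In this assay, cells in 96-well plates receive the compound at five concentrations for 48 hours. Endpoints are linearly interpolated between the surrounding concentrations. TGI is the concentration that stops growth completely.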

Columns and labels:
Experiment in all cases: inhibition of tumour cell growth, NCI panel, 48 h
DMS 273 small cell lung = system: DMS 273 small cell lung
SNB-78 CNS = system: SNB-78 CNS
DMS 114 small cell lung = system: DMS 114 small cell lung
HOP-18 NSCLC = system: HOP-18 NSCLC
RXF-631 renal = system: RXF-631 renal
DLD-1 colon = system: DLD-1 colon
LXFL 529 NSCLC = system: LXFL 529 NSCLC
XF 498 CNS = system: XF 498 CNS

Row | SMILES | TGI (DMS 273 small cell lung) [µM] | TGI (SNB-78 CNS) [µM] | TGI (DMS 114 small cell lung) [µM] | TGI (HOP-18 NSCLC) [µM] | TGI (RXF-631 renal) [µM] | TGI (DLD-1 colon) [µM] | TGI (LXFL 529 NSCLC) [µM] | TGI (XF 498 CNS) [µM]
1 | CN(C)c1ccc(/C=C/C=C\C2=CC(=C\C=C/C=C3C=CC(=[N+](C)C)C=C3)/Sc3ccccc32)cc1 | > 100 | > 100 | 24.4 | – | – | – | – | –
2 | COc1cc(/C=C/C(=O)c2sc(-n3nc(-c4ccccc4)cc3-c3ccccc3)nc2C)ccc1O | > 100 | > 100 | > 100 | > 100 | > 100 | > 100 | – | –
3 | CC(=O)/C(=C\c1ccco1)C(=O)Nc1ccccc1 | – | > 100 | > 100 | > 100 | – | > 100 | > 100 | > 100
4 | C/C(CN1C(=O)c2ccccc2C1=O)=N\NS(=O)(=O)c1ccc(Br)cc1 | > 100 | > 100 | 68.8 | > 100 | – | > 100 | > 100 | –
5 | CCOC(=O)CSc1ccnc(=O)[nH]1 | > 100 | > 100 | > 100 | – | – | – | > 100 | > 100
6 | NC(=S)NNC(=O)/C(=C/c1ccc(/C=C(\NC(=O)c2ccccc2)C(=O)NNC(N)=S)cc1)NC(=O)c1ccccc1 | > 100 | > 100 | > 100 | > 100 | – | > 100 | > 100 | > 100
7 | O=C(NO)c1ccc([N+](=O)[O-])cc1 | > 100 | – | > 100 | – | – | > 100 | 83.8 | > 100
8 | CCCCCCn1c(SCC)c2ccccc2c1-c1nc(F)nc(F)n1 | > 100 | > 100 | > 100 | – | – | > 100 | > 100 | > 100
9 | COc1ccc(/C=C(\Cl)c2ccc(OC)c(OC)c2)cc1OC | > 100 | – | > 100 | – | – | > 100 | > 100 | –
10 | O=P(O)(OCC(O)O)OCC(O)O | > 100 | > 100 | > 100 | > 100 | > 100 | > 100 | > 100 | > 100
11 | c1ccc(Nc2nnc(CSc3nc(-c4ccccc4)c(-c4ccccc4)[nH]3)s2)cc1 | 43.4 | 79.9 | 81 | – | – | > 100 | 53.3 | –
12 | O=S(=O)([O-])[O-].[Fe+2].c1ccc(/C(=N\Nc2ccccn2)c2ccccn2)cc1 | 11.5 | 12.1 | 3.73 | 14.6 | – | 11.2 | 12.3 | –
13 | NC(=O)OCC(COc1ccc(Cl)cc1)OC(=O)c1ccccc1Cl (centres undefined) | 36.4 | > 100 | 28.1 | 62.8 | 46 | 37.1 | 64.6 | –
14 | NCC1(N2CCOCC2)C2CCCC21CO (centres undefined) | > 100 | > 100 | > 100 | > 100 | – | > 100 | > 100 | –
15 | COc1ccc(Br)c2c1CC(C(=O)O)CC2 (centres undefined) | > 100 | > 100 | > 100 | > 100 | – | > 100 | > 100 | > 100
16 | CC(C)=CCCC1(C)C=Cc2c(c(C)cc3c2[nH]c2cc(O)ccc23)O1 (centres undefined) | > 25 | – | > 25 | > 25 | – | > 25 | > 25 | > 25
17 | CC1CC2OC(=O)C3CC(O)CC(=C23)[C@@]12C[C@@H](c1ccoc1)OC2=O (some centres undefined) | > 100 | > 100 | – | > 100 | – | > 100 | > 100 | > 100
18 | COc1cc(/C=C\c2ccccn2)cc(OC)c1OC | > 100 | > 100 | > 100 | > 100 | > 100 | > 100 | > 100 | > 100
19 | CC#COP(=O)(OCC)OCC | – | > 100 | > 100 | – | > 100 | > 100 | > 100 | –
20 | CCOC(C[C@H](O)[C@H]1COC(=S)S1)OCC | > 100 | – | > 100 | – | – | – | > 100 | > 100
21 | O=C1C/C(=C/c2ccc(/C=C3/CC(=O)N(c4cccc(Br)c4)C3=O)cc2)C(=O)N1c1cccc(Br)c1 | > 100 | > 100 | > 100 | > 100 | – | > 100 | > 100 | > 79
22 | COc1cc(NC(C)=O)c2[nH]c3c(C)cc(NC(C)=O)c(C)c3c2c1 | > 100 | – | > 100 | > 100 | – | > 100 | > 100 | > 100
